Test results as given in patent US6465509B2, “Pyrones as inhibitors of cyclooxygenase-2” (Merck Frosst Canada & Co., priority 2000, dated 2002).

Legend:
COX-2 [1] = target: T1, COX-2 (Homo sapiens, UniProt P35354); assay: Human whole blood assay, COX-2 (LPS-induced PGE2 production); format: cell-based; parameters: endogenous in cells; host or cells: fresh heparinized human whole blood from volunteers, incubated with LPS; conditions: LPS-induced PGE2, 24 hours at 37° C., read-out: COX-2 (IC50 μM) HWB
T1 sequence (P35354 18-604): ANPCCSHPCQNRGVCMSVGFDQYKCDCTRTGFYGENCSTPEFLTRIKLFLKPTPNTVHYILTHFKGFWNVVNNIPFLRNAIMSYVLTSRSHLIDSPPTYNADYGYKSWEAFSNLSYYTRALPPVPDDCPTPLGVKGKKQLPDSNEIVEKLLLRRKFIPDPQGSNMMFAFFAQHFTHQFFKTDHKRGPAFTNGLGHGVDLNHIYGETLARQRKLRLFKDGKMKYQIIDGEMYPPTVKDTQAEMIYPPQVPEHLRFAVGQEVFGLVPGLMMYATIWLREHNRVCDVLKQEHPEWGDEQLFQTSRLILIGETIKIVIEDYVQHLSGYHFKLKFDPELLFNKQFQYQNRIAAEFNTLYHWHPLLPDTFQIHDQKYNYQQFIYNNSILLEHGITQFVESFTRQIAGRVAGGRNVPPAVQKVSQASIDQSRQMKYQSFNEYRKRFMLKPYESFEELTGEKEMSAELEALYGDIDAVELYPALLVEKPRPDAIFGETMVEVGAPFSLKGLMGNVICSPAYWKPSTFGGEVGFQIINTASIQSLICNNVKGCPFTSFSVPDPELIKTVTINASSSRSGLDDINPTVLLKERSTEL
Description: Human whole blood provides a protein and cell-rich milieu appropriate for the study of biochemical efficacy of anti-inflammatory compounds such as selective COX-2 inhibitors. […] This is consistent with the observation that COX-2 inhibitors have no effect on PGE2 production in normal blood. These inhibitors are active only after incubation of human whole blood with LPS, which induces COX-2. This assay can be used to evaluate the inhibitory effect of selective COX-2 inhibitors on PGE2 production. As well, platelets in whole blood contain a large amount of the COX-1 enzyme. Immediately following blood clotting, platelets are activated through a thrombin-mediated mechanism. This reaction results in the production of thromboxane B2 (TxB2) via activation of COX-1. Thus, the effect of test compounds on TxB2 levels following blood clotting can be examined and used as an index for COX-1 activity. Therefore, the degree of selectivity by the test compound can be determined by measuring the levels of PGE2 after LPS induction (COX-2) and TxB2 following blood clotting (COX-1) in the same assay.
A. COX-2 (LPS-induced PGE2 production)
Fresh blood is collected in heparinized tubes by venipuncture from both male and female volunteers. The subjects have no apparent inflammatory conditions and have not taken any NSAIDs for at least 7 days prior to blood collection. Plasma is immediately obtained from a 2 mL blood aliquot to use as blank (basal levels of PGE2). The remaining blood is incubated with LPS (100 μg/ml final concentration, Sigma Chem, #L-2630 from E. coli; diluted in 0.1% BSA (Phosphate buffered saline) for 5 minutes at room temperature. Five hundred μL aliquots of blood are incubated with either 2 μL of vehicle (DMSO) or 2 μL of a test compound at final concentrations varying from 10 nM to 30 μM for 24 hours at 37° C. At the end of the incubation, the blood is centrifuged at 12,000×g for 5 minutes to obtain plasma. A 100 μL aliquot of plasma is mixed with 400 μL of methanol for protein precipitation. The supernatant is obtained and is assayed for PGE2 using a radioimmunoassay kit (Amersham, RPA#530) after conversion of PGE2 to its methyl oximate derivative according to the manufacturer's procedure.

COX-2 [2] = target: T1, COX-2; assay: Whole cell assay for COX-2 using CHO[hCOX-2] transfected cell line; format: cell-based; parameters: expressed in transfected cells; host or cells: CHO cells stably transfected with pCDNAIII (CHO[hCOX-2]); conditions: CHO[hCOX-2] cells, PGE2 synthesis, 10 μM AA
From the text: Whole cell assays for COX-2 and COX-1 using CHO transfected cell lines
Chinese hamster ovary (CHO) cell lines which have been stably transfected with an eukaryotic expression vector pCDNAIII containing either the human COX-1 or COX-2 cDNA's are used for the assay. These cell lines are referred to as CHO[hCOX-1] and CHO[hCOX-2], respectively. For cyclooxygenase assays, CHO[hCOX-1] cells from suspension cultures and CHO[hCOX-2] cells prepared by trypsinization of adherent cultures are harvested by centrifugation (300×g, 10 min) and washed once in HBSS containing 15 mM HEPES, pH 7.4, and resuspended in HBSS, 15 mM HEPES, pH 7.4, at a cell concentration of 1.5×10^6 cells/ml. Drugs to be tested are dissolved in DMSO to 66.7-fold the highest test drug concentration. Compounds are typically tested at 8 concentrations in duplicate using serial 3-fold serial dilutions in DMSO of the highest drug concentration. Cells (0.3×10^6 cells in 200 μl) are preincubated with 3 μl of the test drug or DMSO vehicle for 15 min at 37° C. Working solutions of peroxide-free AA (5.5 μM and 110 μM AA for the CHO[hCOX-1] and CHO[COX-2] assays, respectively) are prepared by a 10-fold dilution of a concentrated AA solution in ethanol into HBSS containing 15 mM HEPES, pH 7.4. Cells are then challenged in the presence or absence of drug with the AA/HBSS solution to yield a final concentration of 0.5 μM AA in the CHO[hCOX-1] assay and a final concentration of 10 μM AA in the CHO[hCOX-2] assay. The reaction is terminated by the addition of 10 μl 1N HCl followed by neutralization with 20 μl of 0.5N NaOH. The samples are centrifuged at 300×g at 4° C. for 10 min, and an aliquot of the clarified supernatant is appropriately diluted for the determination of PGE2 levels using an enzyme-linked immunoassay for PGE2 (Correlate PGE2 enzyme immunoassay kit, Assay Designs, Inc.). Cyclooxygenase activity in the absence of test compounds is determined as the difference in PGE2 levels of cells challenged with arachidonic acid versus the PGE2 levels in cells mock-challenged with ethanol vehicle. Inhibition of PGE2 synthesis by test compounds is calculated as a percentage of the activity in the presence of drug versus the activity in the positive control samples.
Compounds of the present invention are inhibitors of cyclooxygenase-2 and are thereby useful in the treatment of cyclooxygenase-2 mediated diseases as enumerated above. The activities of the compounds against cyclooxygenase may be seen in the representative results shown below. In the assay, inhibition is determined by measuring the amount of prostaglandin E2 (PGE2) synthesized in the presence of arachidonic acid, cyclooxygenase-1 or cyclooxygenase-2 and a putative inhibitor. The IC50 values represent the concentration of putative inhibitor required to return PGE2 synthesis to 50% of that obtained as compared to the uninhibited control.

IC50 (COX-2 [1]) [µM]	IC50 (COX-2 [2]) [µM]	Compound
2.6	0.12	CS(=O)(=O)c1ccc(-c2ccoc(=O)c2-c2ccccc2)cc1 [Example 1, 4-(4-Methylsulfonyl)phenyl-3-phenyl-pyran-2-one]
< 0.4	0.4	Cc1cc(-c2ccc(S(C)(=O)=O)cc2)c(-c2ccc(F)cc2)c(=O)o1 [Example 2, 3-(4-Fluorophenyl)-6-methyl-4-(4-methylsulfonyl)phenyl-pyran-2-one]
< 0.4	0.6	Cc1cc(-c2ccc(S(C)(=O)=O)cc2)c(-c2cccc(F)c2)c(=O)o1 [Example 3, 3-(3-Fluorophenyl)-6-methyl-4-(4-methylsulfonyl)phenyl-pyran-2-one]
< 0.4	0.4	Cc1cc(-c2ccc(S(C)(=O)=O)cc2)c(-c2ccccc2)c(=O)o1 [Example 4, 6-Methyl-4-(4-methylsulfonyl)phenyl-3-phenyl-pyran-2-one]
1.8	0.2	CS(=O)(=O)c1ccc(-c2cc(C(F)F)oc(=O)c2-c2ccccc2)cc1 [Example 5, 6-Difluoromethyl-4-(4-methylsulfonyl)phenyl-3-phenyl-pyran-2-one]
3.1	1.1	CS(=O)(=O)c1ccc(-c2cc(CF)oc(=O)c2-c2ccccc2)cc1 [Example 6, 6-Fluoromethyl-4-(4-methylsulfonyl)phenyl-3-phenyl-pyran-2-one]
0.5	0.14	Cc1cc(-c2ccc(S(C)(=O)=O)cc2)c(Sc2ccccc2)c(=O)o1 [Example 7, 6-Methyl-4-(4-(methylsulfonyl)phenyl)-3-phenylthio-pyran-2-one]
< 0.4	0.2	Cc1cc(-c2ccc(S(C)(=O)=O)cc2)c(Oc2ccccc2)c(=O)o1 [Example 8, 6-Methyl-4-(4-(methylsulfonyl)phenyl)-3-phenoxy-pyran-2-one]
0.6	2.9	Cc1cc(-c2ccc(S(C)(=O)=O)cc2)c(-c2cccnc2)c(=O)o1 [Example 9]
1.3	0.8	Cc1cc(-c2ccc(S(C)(=O)=O)cc2)c(SC(C)C)c(=O)o1 [Example 10, 3-Isopropylthio-6-methyl-4-(4-(methylsulfonyl)phenyl)-pyran-2-one]
0.3 to 1	0.01	CS(=O)(=O)c1ccc(-c2cc(C(F)(F)F)oc(=O)c2Sc2ccccc2)cc1 [Example 11, 4-(4-(Methylsulfonyl)phenyl)-3-phenylthio-6-trifluoromethyl-pyran-2-one]
1 to 3	0.06	CC(C)Sc1c(-c2ccc(S(C)(=O)=O)cc2)cc(C(F)(F)F)oc1=O [Example 12, 3-Isopropylthio-4-(4-(methylsulfonyl)phenyl)-6-trifluoromethyl-pyran-2-one]
1.2	2.8	Cc1cc(-c2ccc(S(C)(=O)=O)cc2)c(CCC(C)(C)O)c(=O)o1 [Example 14, 3-(3-Hydroxy-3-methylbutyl)-6-methyl-4-(4-methylsulfonyl)phenyl-pyran-2-one]
